According to PubChem BioAssay (NCI):
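Interpolation was linear, between the two tested concentrations surrounding the appropriate level; five concentrations were tested over 48 hours in 96-well plates. TGI: total growth inhibition.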

How the values were obtained:
Assay in all cases: NCI anticancer screen, dose series, 48 h
786-0 renal = test system: 786-0 renal
A498 renal = test system: A498 renal
A549 NSCLC = test system: A549 NSCLC
ACHN renal = test system: ACHN renal
CAKI-1 renal = test system: CAKI-1 renal
CCRF-CEM leukemia = test system: CCRF-CEM leukemia
COLO 205 colon = test system: COLO 205 colon
DU-145 prostate = test system: DU-145 prostate
EKVX NSCLC = test system: EKVX NSCLC
HCT-116 colon = test system: HCT-116 colon
HCT-15 colon = test system: HCT-15 colon
HL-60(TB) leukemia = test system: HL-60(TB) leukemia
HOP-92 NSCLC = test system: HOP-92 NSCLC
HT29 colon = test system: HT29 colon
IGROV1 ovarian = test system: IGROV1 ovarian
K-562 leukemia = test system: K-562 leukemia
LOX IMVI melanoma = test system: LOX IMVI melanoma
M14 melanoma = test system: M14 melanoma
MCF7 breast = test system: MCF7 breast
MDA-MB-231 breast = test system: MDA-MB-231 breast
MDA-MB-435 = test system: MDA-MB-435
MDA-N = test system: MDA-N
MOLT-4 leukemia = test system: MOLT-4 leukemia
NCI-H226 lung = test system: NCI-H226 lung
NCI-H23 lung = test system: NCI-H23 lung
NCI-H460 lung = test system: NCI-H460 lung
NCI-H522 lung = test system: NCI-H522 lung
NCI/ADR-RES ovarian = test system: NCI/ADR-RES ovarian
OVCAR-3 ovarian = test system: OVCAR-3 ovarian
OVCAR-4 ovarian = test system: OVCAR-4 ovarian
OVCAR-5 ovarian = test system: OVCAR-5 ovarian
OVCAR-8 ovarian = test system: OVCAR-8 ovarian
PC-3 prostate = test system: PC-3 prostate
RPMI-8226 leukemia = test system: RPMI-8226 leukemia
RXF 393 renal = test system: RXF 393 renal
SF-295 CNS = test system: SF-295 CNS
SF-539 CNS = test system: SF-539 CNS
SK-MEL-2 melanoma = test system: SK-MEL-2 melanoma
SK-MEL-28 melanoma = test system: SK-MEL-28 melanoma
SK-MEL-5 melanoma = test system: SK-MEL-5 melanoma
SN12C renal = test system: SN12C renal
SNB-19 CNS = test system: SNB-19 CNS
SR leukemia = test system: SR leukemia
SW-620 colon = test system: SW-620 colon
TK-10 renal = test system: TK-10 renal
U251 CNS = test system: U251 CNS
UACC-257 melanoma = test system: UACC-257 melanoma
UACC-62 melanoma = test system: UACC-62 melanoma
UO-31 renal = test system: UO-31 renal

Question: `C[C@]12CCC(N3CCCC3)CC1=CC[C@@H]1[C@@H]2CC[C@]2(C)C(O)[C@H](n3ccnc3)C[C@@H]12` (some centres undefined) was tested. Which TGI (786-0 renal) did it give?
Answer: > 100 µM

Question: And the TGI (A498 renal)?
Answer: > 100 µM

Question: What about the TGI (A549 NSCLC) of the same compound?
Answer: > 100 µM

Question: And the TGI (ACHN renal)?
Answer: > 100 µM

Question: And the TGI (CAKI-1 renal)?
Answer: > 100 µM

Question: What about the TGI (CCRF-CEM leukemia) of the same compound?
Answer: > 100 µM

Question: And the TGI (COLO 205 colon)?
Answer: > 100 µM

Question: And the TGI (DU-145 prostate)?
Answer: > 100 µM

Question: And the TGI (EKVX NSCLC)?
Answer: > 100 µM

Question: What about the TGI (HCT-116 colon) of the same compound?
Answer: > 100 µM

Question: And the TGI (HCT-15 colon)?
Answer: > 100 µM

Question: What about the TGI (HL-60(TB) leukemia) of the same compound?
Answer: 36.1 µM

Question: What about the TGI (HOP-92 NSCLC) of the same compound?
Answer: > 100 µM

Question: What about the TGI (HT29 colon) of the same compound?
Answer: > 100 µM

Question: What about the TGI (IGROV1 ovarian) of the same compound?
Answer: > 100 µM

Question: And the TGI (K-562 leukemia)?
Answer: > 100 µM

Question: And the TGI (LOX IMVI melanoma)?
Answer: > 100 µM

Question: And the TGI (M14 melanoma)?
Answer: 34.4 µM

Question: And the TGI (MCF7 breast)?
Answer: > 100 µM

Question: What about the TGI (MDA-MB-231 breast) of the same compound?
Answer: > 100 µM

Question: What about the TGI (MDA-MB-435) of the same compound?
Answer: > 100 µM

Question: And the TGI (MDA-N)?
Answer: > 100 µM

Question: What about the TGI (MOLT-4 leukemia) of the same compound?
Answer: 83.6 µM

Question: What about the TGI (NCI-H226 lung) of the same compound?
Answer: > 100 µM

Question: And the TGI (NCI-H23 lung)?
Answer: > 100 µM

Question: What about the TGI (NCI-H460 lung) of the same compound?
Answer: > 100 µM

Question: What about the TGI (NCI-H522 lung) of the same compound?
Answer: > 100 µM

Question: And the TGI (NCI/ADR-RES ovarian)?
Answer: > 100 µM

Question: And the TGI (OVCAR-3 ovarian)?
Answer: > 100 µM

Question: What about the TGI (OVCAR-4 ovarian) of the same compound?
Answer: > 100 µM

Question: And the TGI (OVCAR-5 ovarian)?
Answer: > 100 µM

Question: And the TGI (OVCAR-8 ovarian)?
Answer: > 100 µM

Question: And the TGI (PC-3 prostate)?
Answer: > 100 µM

Question: What about the TGI (RPMI-8226 leukemia) of the same compound?
Answer: > 100 µM

Question: And the TGI (RXF 393 renal)?
Answer: 72.8 µM

Question: And the TGI (SF-295 CNS)?
Answer: > 100 µM

Question: And the TGI (SF-539 CNS)?
Answer: 46.5 µM

Question: And the TGI (SK-MEL-2 melanoma)?
Answer: > 100 µM

Question: What about the TGI (SK-MEL-28 melanoma) of the same compound?
Answer: 68.5 µM

Question: And the TGI (SK-MEL-5 melanoma)?
Answer: > 100 µM

Question: What about the TGI (SN12C renal) of the same compound?
Answer: > 100 µM

Question: What about the TGI (SNB-19 CNS) of the same compound?
Answer: > 100 µM

Question: What about the TGI (SR leukemia) of the same compound?
Answer: 43.9 µM

Question: And the TGI (SW-620 colon)?
Answer: > 100 µM

Question: And the TGI (TK-10 renal)?
Answer: > 100 µM

Question: And the TGI (U251 CNS)?
Answer: > 100 µM

Question: And the TGI (UACC-257 melanoma)?
Answer: > 100 µM

Question: And the TGI (UACC-62 melanoma)?
Answer: > 100 µM

Question: What about the TGI (UO-31 renal) of the same compound?
Answer: > 100 µM
